# Test results: patent publication US6653342B2, “13-substituted milbemycin derivatives, their preparation and their use against insects and other pests” (Sankyo Company, Limited, priority 2000, dated 2003)
# Several values for one entry are separate records, joined by “and”; a condition that tells them apart may be missing. Equal entries are not always repeated.
# How the values were obtained:
# cat fleas [1] = experiment: whole plant or invertebrate; type: in vivo; conditions: 1 ppm in bovine serum sucked through Parafilm at 37° C.; dead fleas after 48 hours; 20 fleas per group; corrected by control group
# Description: A test container wherein the living space of fleas was isolated from bovine serum by use of Parafilm™ (obtainable from Aldrich Chemical Co. Ltd.), which is usually used as an artificial skin, was prepared. A compound to be tested was added to the bovine serum in an amount sufficient for its concentration to be 1 ppm, and the fleas were allowed to suck the serum sample through the Parafilm™ at 37° C. Each group consisted of 20 fleas. […] By counting the dead fleas in a control group without a test compound, the mortality was corrected.
# cat fleas [2] = experiment: Test on elimination of fleas from dogs (Test Examples 2 and 3); type: in vivo, Ctenocephalides felis; conditions: beagles
# Description: Beagles provided for the test were infected with cat fleas prior to the commencement of the test. The number of fleas collected from the surface of the body of the dog three days after infection was counted and an infection ratio, calculated as the ratio of the fleas counted three days after infection to the initial number used to infect the dog, was determined for each dog.
# The resulting test solution was administered dropwise to the interscapular region of each of four test beagles (4 to 7 months old) at a dose of 5 mg/kg body weight. On Day 7, Day 21 and Day 28 after administration of the test compound, each dog was infected with 100 cat fleas. The number of fleas collected from the surface of the bodies of the dogs three days after infection was counted. The number of fleas obtained before and after administration was determined to give an elimination ratio.
# Thus, even 28 days after administration of the test compound, the elimination ratio was 100%.
# [3] = test system: roundworms (Toxocara canis); experiment: Test on effect against roundworms in naturally infected dogs (Test Example 4); type: in vivo; conditions: dogs naturally infected with roundworm, one line per dog
# Description: (§1) For each of these three parasites, the number of eggs per gram (EPG) of dog faeces excreted was measured before, and 7 to 9 days after, administration of the test compound. The number of worms excreted in the faeces of the dog (WEF) between administration of the test compound and the end of the test was measured. Upon completion of the test, each of the test dogs was subjected to post mortem to count the number of surviving worms in the digestive tract (SWDT).
# [4] = test system: hookworms (Ancylostoma caninum); experiment: Test on effect against hookworms in naturally infected dogs (Test Example 5); type: in vivo; conditions: dogs naturally infected with hookworm, one line per dog
# Description: as §1
# [5] = test system: whipworms (Trichuris vulpis); experiment: Test on effect against whipworms in naturally infected dogs (Test Example 6); type: in vivo; conditions: dogs naturally infected with whipworm, one line per dog
# Description: as §1
# [6] = test system: Perforating Scabies (Sarcoptes scabiei); experiment: Test on effect against perforating scabies, naturally infected dog (Test Example 7); type: in vivo
# Description: (§2) Dogs and cats naturally infected with scabies were provided for the test. […] This was administered at a rate of 5 mg/kg body weight to a test animal in its poll region. The epidermis was scraped off the test animal from its ears and limbs before administration and then three weeks after administration of the test compound. The epidermis thus obtained was then charged in a 10% potassium hydroxide solution and the number of worm bodies and eggs was observed microscopically.
# [7] = test system: Perforating Scabies (Sarcoptes scabiei); experiment: Test on effect against perforating scabies, naturally infected cat (Test Example 7); type: in vivo
# Description: as §2
# [8] = test system: Southern root-knot nematode; experiment: Test on insecticidal effect against Southern root-knot nematode, cucumber on agar plate (Test Example 10); type: in vivo; conditions: 1000 ppm solution on filter paper disks
# Description: An agar plate (80 ml: containing 1.25 ppm of kanamycin, 1.25 ppm of streptomycin and 0.8585 ppm of penicillin) was prepared in a container (70×70×20 mm). The plate was planted with a cucumber in the cotyledon stage of development. […] One of the thus-treated paper disks was put into the agar plate and two further treated paper disks were laid over the cotyledon.
# After treatment, the container was covered with an acrylic plate to prevent water evaporation. Four days later, about 2.5 ml of a suspension containing 500 second-stage larvae of Southern root-knot nematode were added dropwise to the agar plate. Ten days after addition of the larvae, the number of galls of nematodes was estimated. Each test was conducted at a temperature of 25° C. and a humidity of 65%. “Untreated” in this test is a control in which water was used to soak the filter paper instead of the test compound solution.
# The following criteria were used to judge the results obtained:
# 0: equal to the treatment-free group (51 to 150 galls)
# 1: slightly less than the treatment-free group (36 to 50 galls)
# 2: less than the treatment-free group (21 to 35 galls)
# 3: markedly less than the treatment-free group (0 to 20 galls)
# microfilariae (mf) = experiment: Test on activity against microfilariae in culture with or without neutrophils (Test Example 8); conditions: 37° C., 5% CO2, compared to broth containing mf only
# [9] = 5 mg/kg dropwise to poll region
# [10] = 5 mg/kg to poll region, epidermis scraped from ears and limbs, counted microscopically
compound,measurement,setting,value
"CCC1OC2(CCC1C)CC1CC(CC=C(C)C(OC(=O)C3(c4ccc(NC(=O)COC)cc4)CCCC3)C(C)C=CC=C3COC4C(O)C(C)=CC(C(=O)O1)C34O)O2 (stereo not drawn) [Example 1(c), 13-[1-(4-Methoxyacetylaminophenyl)cyclopentanecarbonyloxy]-5-hydroxy-milbemycin A4]",Mortality (%),cat fleas [1],90.2%
same,elimination ratio,"cat fleas [2]; 5 mg/kg body weight dropwise to interscapular region (10% w/v solution), infected with 100 cat fleas 28 days after administration, counted three days after infection",100%
same,number of fleas collected from the surfaces of the bodies of the dogs three days after infection,"cat fleas [2]; 5 mg/kg dropwise, infection with 100 cat fleas on each of Day 7, Day 21 and Day 28 after administration",no fleas were collected
same,EPG after 7-9 Days,"[3]; 5 mg/kg dropwise to poll region, eggs per gram of faeces",0 eggs per gram
same,WEF (number of worms excreted in the faeces),"[3]; 5 mg/kg dropwise, between administration and end of test, 5 mg/kg",3 and 5 and 8
same,Elimination ratio (%),[3]; 5 mg/kg dropwise,100%
same,SWDT (number of surviving worms in the digestive tract),"[3]; 5 mg/kg dropwise, post mortem",0
same,EPG after 7-9 Days,[4]; [9],0 eggs per gram
same,Elimination ratio (%),[4]; 5 mg/kg dropwise,100%
same,SWDT (number of surviving worms in the digestive tract),"[4]; 5 mg/kg dropwise, post mortem",0
same,EPG after 7-9 Days,[5]; [9],0 eggs per gram
same,Elimination ratio (%),[5]; 5 mg/kg dropwise,100%
same,SWDT (number of surviving worms in the digestive tract),"[5]; 5 mg/kg dropwise, post mortem",0
same,After administration (three weeks later) Egg,[6]; [10],0
same,After administration (three weeks later) Worm body,[6]; [10],9
same,oviposition of scabies,"[6]; 5 mg/kg, after three weeks",prevented completely
same,After administration (three weeks later) Egg,[7]; [10],0
same,After administration (three weeks later) Worm body,[7]; [10],0
same,effects against scabies,"[7]; 5 mg/kg, after three weeks",100%
same,oviposition preventing effects,"[7]; 5 mg/kg, after three weeks",100%
same,Effect (result),[8]; graded by number of galls ten days after addition of larvae,3 (markedly less than the treatment-free group (0 to 20 galls))
same,Number of galls,"[8]; ten days after addition of 500 second-stage larvae, 25° C., humidity 65%",6
same,Percentage reduction of microfilariae,microfilariae (mf); mf + neutrophils + test compound (100 ng/ml),53.8%
same,Percentage reduction of microfilariae,"microfilariae (mf); mf + test compound (100 ng/ml), no neutrophils",0.02%
